Literature values, collected in patent US6538179B1, “Enhanced starch biosynthesis in seeds” (Monsanto Technology LLC, priority 1990, dated 2003).

Target: plant ADPGPP (Solanum tuberosum, UniProt P23509+Q00081)
Sequence (Q00081 whole entry): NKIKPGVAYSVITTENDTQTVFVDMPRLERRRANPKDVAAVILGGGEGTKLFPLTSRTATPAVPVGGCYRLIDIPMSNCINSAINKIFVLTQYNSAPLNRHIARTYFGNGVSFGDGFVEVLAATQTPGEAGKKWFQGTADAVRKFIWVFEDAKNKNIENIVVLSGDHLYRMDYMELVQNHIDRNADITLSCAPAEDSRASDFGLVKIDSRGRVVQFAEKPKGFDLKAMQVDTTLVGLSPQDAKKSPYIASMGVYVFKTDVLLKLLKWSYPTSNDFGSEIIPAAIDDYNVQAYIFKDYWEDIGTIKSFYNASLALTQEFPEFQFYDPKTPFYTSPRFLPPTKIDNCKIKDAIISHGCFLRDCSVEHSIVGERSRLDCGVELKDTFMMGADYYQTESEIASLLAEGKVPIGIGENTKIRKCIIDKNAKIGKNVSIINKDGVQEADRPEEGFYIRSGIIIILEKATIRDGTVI
Sequence (P23509 73-521): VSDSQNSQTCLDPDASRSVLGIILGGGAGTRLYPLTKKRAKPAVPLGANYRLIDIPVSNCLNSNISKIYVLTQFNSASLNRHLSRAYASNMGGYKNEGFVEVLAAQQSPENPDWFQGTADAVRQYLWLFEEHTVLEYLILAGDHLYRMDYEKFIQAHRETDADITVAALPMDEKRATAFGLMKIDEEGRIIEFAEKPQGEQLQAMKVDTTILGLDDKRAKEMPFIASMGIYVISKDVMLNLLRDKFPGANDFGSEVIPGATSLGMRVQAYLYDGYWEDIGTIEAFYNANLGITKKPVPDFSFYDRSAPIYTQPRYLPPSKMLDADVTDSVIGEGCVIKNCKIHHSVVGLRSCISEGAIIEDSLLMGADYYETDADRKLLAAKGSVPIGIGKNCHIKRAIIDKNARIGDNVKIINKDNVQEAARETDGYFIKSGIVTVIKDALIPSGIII

In the case of `O=P(O)(O)O` [Pi, inorganic phosphate], the IC50 (read-out: I0.5, inhibition of ADPGPP by Pi) is listed as 45 µM.

For `O=C(O)[C@H](O)COP(=O)(O)O` [3-PGA, 3-phosphoglycerate], the EC50 (activation of ADPGPP by 3-PGA, read-out: A0.5) is given as 75 µM.
